Columns and labels:
[1] = system: cultured human mast cells (CHMC); experiment: CHMC low cell density IgE activation: tryptase assay; format: cell-based; conditions: low cell density CHMC, IgE activation, tryptase
Summary of the method: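 Tryptase release was read from supernatant with a fluorogenic substrate (30 min, room temperature) after anti-IgE challenge of cultured human mast cells (1000–1500 cells/well, low density) for 30 minutes at 37° C.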

[2] = system: cultured human mast cells (CHMC); experiment: CHMC low cell density ionomycin activation: tryptase assay; format: cell-based; conditions: low cell density CHMC, tryptase, 3 pt, read-out: LD Tryptase, CHMC, Iono, 3 pt
[3] = Homo sapiens, Mast cell, 3 pt, read-out: LD Tryptase, CHMC, IgE, 3 pt
[4] = Homo sapiens, Mast cell, 8 pt, read-out: LD Tryptase, CHMC, IgE, 8 pt
[5] = 3 pt, read-out: LD Tryptase, CHMC, IgE, 3 pt
[6] = 8 pt, read-out: LD Tryptase, CHMC, IgE, 8 pt

Compound	IC50 [1, 3]	IC50 [1, 4]	IC50 ([2]; Homo sapiens, Mast cell)	IC50 [1, 5]	IC50 [2]	IC50 [1, 6]
CC(=O)N1CCN(c2cccc(Nc3ncc(F)c(Nc4cc(C5CC5)n[nH]4)n3)c2)CC1 [Compound 1112]	< 10 µM	< 10 µM	< 10 µM	–	–	–
Fc1cnc(Nc2cccc(N3CCOCC3)c2)nc1Nc1cc(C2CC2)n[nH]1 [Compound 1114]	< 10 µM	< 10 µM	> 10 µM	–	–	–
CCOC(=O)N1CCN(c2cccc(Nc3ncc(F)c(Nc4cc(C5CC5)n[nH]4)n3)c2)CC1 [Compound 1115]	< 10 µM	–	< 10 µM	–	–	–
CCOC(=O)N1CCN(c2ccc(Nc3ncc(F)c(Nc4cc(C5CC5)n[nH]4)n3)cc2)CC1 [Compound 1116, N4-(3-Cyclopropyl-1H-pyrazol-5-yl)-N2-[4-(4-ethoxycarbonylpiperazino)phenyl]-5-fluoro-2,4-pyrimidinediamine]	< 10 µM	–	< 10 µM	–	–	–
CC(C)(C)OC(=O)N1CC(Nc2nc(Nc3ccc(N4CCOCC4)cc3)ncc2F)C1 [Compound 1118, N4-(1-tert-Butoxycarbonylazetidin-3-yl)-5-fluoro-N2-(4-morpholinophenyl)-2,4-pyrimidinediamine]	< 10 µM	–	< 10 µM	–	–	–
CC(=O)N1CCN(c2ccc(Nc3ncc(F)c(NC4CN(C(=O)OC(C)(C)C)C4)n3)cc2)CC1 [Compound 1119, N2-[4-(4-Acetylpiperazino)phenyl]-N4-(1-tert-butoxycarbonylazetidin-3-yl)-5-fluoro-2,4-pyrimidinediamine]	< 10 µM	–	> 10 µM	–	–	–
CC(=O)N1CCN(c2cccc(Nc3ncc(F)c(NC4CN(C(=O)OC(C)(C)C)C4)n3)c2)CC1 [Compound 1120, N2-[3-(4-Acetylpiperazino)phenyl]-N4-(1-tert-butoxycarbonylazetidin-3-yl)-5-fluoro-2,4-pyrimidinediamine]	> 10 µM	–	> 10 µM	–	–	–
Fc1cnc(Nc2ccc(N3CCOCC3)cc2)nc1Nc1cc(C2CC2)n[nH]1 [Compound 1121]	< 10 µM	< 10 µM	> 10 µM	–	–	–
Fc1cnc(Nc2ccc(N3CCOCC3)cc2)nc1NC1CNC1 [Compound 1123]	> 10 µM	–	< 10 µM	–	–	–
CC(=O)N1CCN(c2ccc(Nc3ncc(F)c(NC4CNC4)n3)cc2)CC1 [Compound 1124]	> 10 µM	–	> 10 µM	–	–	–
CC(=O)N1CCN(c2cccc(Nc3ncc(F)c(NC4CNC4)n3)c2)CC1 [Compound 1127]	< 10 µM	–	> 10 µM	–	–	–
CN(c1nc(Nc2ccc(N3CCOCC3)cc2)ncc1F)C1CCC1 [Compound 1139, N4-Cyclobutyl-5-fluoro-N4-methyl-N2-(4-morpholinophenyl)-2,4-pyrimidinediamine]	< 10 µM	–	> 10 µM	–	–	–
CC(=O)N1CCN(c2ccc(Nc3ncc(F)c(N(C)C4CCC4)n3)cc2)CC1 [Compound 1140, N2-[4-(4-Acetylpiperazino)phenyl]-N4-cyclobutyl-5-fluoro-N4-methyl-2,4-pyrimidinediamine]	< 10 µM	–	> 10 µM	–	–	–
CN1CCN(c2ccc(Nc3ncc(F)c(Nc4ccc5c(n4)NCCO5)n3)cc2)CC1 [Compound 1141, N4-(3,4-Dihydro-2H,4H-5-pyrid[1,4]oxazin-6-yl)-5-fluoro-N2-[4-(4-methylpiperazino)phenyl]-2,4-pyrimidinediamine]	–	–	–	< 10 µM	> 10 µM	< 10 µM
Fc1cnc(Nc2cccc(-c3ncco3)c2)nc1Nc1ccc2c(n1)NCCO2 [Compound 1143, N4-(3,4-Dihydro-2H,4H-5-pyrid[1,4]oxazin-6-yl)-5-fluoro-N2-[3-(oxazol-2-yl)phenyl]-2,4-pyrimidinediamine]	–	–	–	< 10 µM	> 10 µM	< 10 µM
COc1ccc(Nc2ncc(F)c(Nc3ccc4c(n3)NCCO4)n2)cc1Cl [Compound 1146, N2-(3-Chloro-4-methoxyphenyl)-N4-(3,4-dihydro-2H,4H-5-pyrid[1,4]oxazin-6-yl)-5-fluoro-2,4-pyrimidinediamine]	–	–	–	< 10 µM	> 10 µM	–
CCOC(=O)N1CCN(c2ccc(Nc3ncc(F)c(N(C)C4CCC4)n3)cc2)CC1 [Compound 1148, N4-Cyclobutyl-N2-[4-(4-ethoxycarbonylpiperazino)phenyl]-5-fluoro-N4-methyl-2,4-pyrimidinediamine]	< 10 µM	< 10 µM	> 10 µM	–	–	–
CN(c1nc(Nc2cccc(N3CCOCC3)c2)ncc1F)C1CCC1 [Compound 1149, N4-Cyclobutyl-5-fluoro-N4-methyl-N2-(3-morpholinophenyl)-2,4-pyrimidinediamine]	< 10 µM	–	> 10 µM	–	–	–
CN1CCN(c2cccc(Nc3ncc(F)c(N(C)C4CCC4)n3)c2)CC1 [Compound 1151, N4-Cyclobutyl-5-fluoro-N4-methyl-N2-[3-(4-methylpiperazino)phenyl]-2,4-pyrimidinediamine]	< 10 µM	< 10 µM	> 10 µM	–	–	–
COc1cc(C(N)=O)c(Nc2ncc(F)c(N(C)C3CCC3)n2)cc1OCc1ccccc1 [Compound 1153, N2-(2-Aminocarbonyl-5-benzoxy-4-methoxyphenyl)-N4-cyclobutyl-5-fluoro-N4-methyl-2,4-pyrimidinediamine]	> 10 µM	–	> 10 µM	–	–	–
O=C(Nc1ccc(Nc2ncc(F)c(NC3CCC3)n2)cc1)c1ccccc1 [Compound 1154, N2-(4-Benzamidophenyl)-N4-cyclobutyl-5-fluoro-2,4-pyrimidinediamine]	< 10 µM	–	> 10 µM	–	–	–
Fc1cnc(Nc2ccc(N3CCOCC3)cc2)nc1NC1CCCC1 [Compound 1155, N4-Cyclopentyl-5-fluoro-N2-(4-morpholinophenyl)-2,4-pyrimidinediamine]	< 10 µM	–	> 10 µM	–	–	–
CC(=O)N1CCN(c2ccc(Nc3ncc(F)c(NC4CCCC4)n3)cc2)CC1 [Compound 1156, N2-[4-(4-Acetylpiperazino)phenyl]-N4-cyclopentyl-5-fluoro-2,4-pyrimidinediamine]	< 10 µM	–	> 10 µM	–	–	–
CC(=O)N1CCN(c2cccc(Nc3ncc(F)c(NC4CCCC4)n3)c2)CC1 [Compound 1159, N2-[3-(4-Acetylpiperazino)phenyl]-N4-cyclopentyl-5-fluoro-2,4-pyrimidinediamine]	< 10 µM	–	> 10 µM	–	–	–

Results, then the compound that gave them:

IC50 [1, 3]	IC50 [1, 4]	IC50 ([2]; Homo sapiens, Mast cell)	IC50 [1, 5]	IC50 [2]	IC50 [1, 6]	Compound
< 10 µM	< 10 µM	> 10 µM	–	–	–	CN1CCN(c2ccc(Nc3ncc(F)c(Nc4cc(C5CC5)n[nH]4)n3)cc2)CC1 [Compound 1113, N4-(3-Cyclopropyl-1H-pyrazol-5-yl)-5-fluoro-N2-[4-(4-methylpiperazino)phenyl]-2,4-pyrimidinediamine]
–	–	–	> 10 µM	> 10 µM	–	Fc1cnc(Cl)nc1Nc1ccc2c(n1)NCCO2 [Compound 1117, 2-Chloro-5-fluoro-N4-(3,4-dihydro-2H,4H-5-pyrid[1,4]oxazin-6-yl)-4-pyrimidineamine]
< 10 µM	–	> 10 µM	–	–	–	CCOC(=O)N1CCN(c2ccc(Nc3ncc(F)c(NC4CN(C(=O)OC(C)(C)C)C4)n3)cc2)CC1 [Compound 1122]
> 10 µM	–	> 10 µM	–	–	–	CCOC(=O)N1CCN(c2ccc(Nc3ncc(F)c(NC4CNC4)n3)cc2)CC1 [Compound 1125]
> 10 µM	–	< 10 µM	–	–	–	Fc1cnc(Nc2cccc(N3CCOCC3)c2)nc1NC1CNC1 [Compound 1126]
–	–	–	–	> 10 µM	< 10 µM	Fc1cnc(Nc2ccc(N3CCOCC3)cc2)nc1Nc1ccc2c(n1)NCCO2 [Compound 1128, N4-(3,4-Dihydro-2H,4H-5-pyrid[1,4]oxazin-6-yl)-5-fluoro-N2-(4-morpholinophenyl)-2,4-pyrimidinediamine]
–	–	–	< 10 µM	> 10 µM	< 10 µM	CN1CCN(c2cccc(Nc3ncc(F)c(Nc4ccc5c(n4)NCCO5)n3)c2)CC1 [Compound 1142, N4-(3,4-Dihydro-2H,4H-5-pyrid[1,4]oxazin-6-yl)-5-fluoro-N2-[3-(4-methylpiperazino)phenyl]-2,4-pyrimidinediamine]
< 10 µM	< 10 µM	> 10 µM	–	–	–	COc1cc(Nc2ncc(F)c(Nc3ccc4c(n3)NCCO4)n2)cc(OC)c1OC [Compound 1145, N4-(3,4-Dihydro-2H,4H-5-pyrid[1,4]oxazin-6-yl)-5-fluoro-N2-(3,4,5-trimethoxyphenyl)-2,4-pyrimidinediamine]
< 10 µM	–	> 10 µM	–	–	–	CC(=O)N1CCN(c2cccc(Nc3ncc(F)c(N(C)C4CCC4)n3)c2)CC1 [Compound 1150, N2-[3-(4-Acetylpiperazino)phenyl]-N4-cyclobutyl-5-fluoro-N4-methyl-2,4-pyrimidinediamine]
< 10 µM	–	> 10 µM	–	–	–	CCOC(=O)N1CCN(c2cccc(Nc3ncc(F)c(N(C)C4CCC4)n3)c2)CC1 [Compound 1152, N4-Cyclobutyl-N2-[3-(4-ethoxycarbonylpiperazino)phenyl]-5-fluoro-N4-methyl-2,4-pyrimidinediamine]
< 10 µM	–	> 10 µM	–	–	–	CN1CCN(c2ccc(Nc3ncc(F)c(NC4CCCC4)n3)cc2)CC1 [Compound 1157, N4-Cyclopentyl-5-fluoro-N2-[4-(4-methylpiperazino)phenyl]-2,4-pyrimidinediamine]
< 10 µM	–	> 10 µM	–	–	–	Fc1cnc(Nc2cccc(N3CCOCC3)c2)nc1NC1CCCC1 [Compound 1158, N4-Cyclopentyl-5-fluoro-N2-(3-morpholinophenyl)-2,4-pyrimidinediamine]
< 10 µM	–	> 10 µM	–	–	–	CN1CCN(c2cccc(Nc3ncc(F)c(NC4CCCC4)n3)c2)CC1 [Compound 1160]
< 10 µM	–	> 10 µM	–	–	–	CCOC(=O)N1CCN(c2cccc(Nc3ncc(F)c(NC4CCCC4)n3)c2)CC1 [Compound 1161]
